Measured values reported in patent US11117874B2, “Certain (2S)-N-[(1S)-1-cyano-2-phenylethyl]-1,4-oxazepane-2-carboxamides as dipeptidyl peptidase 1 inhibitors” (AstraZeneca AB, priority 2014, dated 2021).

Experiments:
[1] = Test B: In-Vitro Competitive Aortic Tissue Binding Assay; details: 100 μM compound pre-incubated overnight at 37° C. with rat aortic homogenate, competition with 100 μM [14C]4-amino-N-[(1S)-1-cyano-2-(4′-cyanobiphenyl-4-yl)ethyl]tetrahydro-2H-pyran-4-carboxamide; four categories
Protocol: To assist the design of DPP1 inhibitors with a decreased risk of binding to elastin rich tissues, such as the aorta, the in-vitro competitive aortic binding assay disclosed below (Test B) was developed to facilitate the selection process.
Test B: In-Vitro Competitive Aortic Tissue Binding Assay
Aortic homogenate was prepared from the thoracic aortae of Han Wistar rats. Freshly isolated to thoracic aortae were frozen, and later thawed and stripped of non-elastic material.
Homogenate concentration was adjusted to 30 mg/mL in Puck's saline, and aliquots were stored at −80° C. until use. Positive and negative control compounds and test compounds were made up to 100 mM in DMSO, and added to 1 mL aliquots of aortic homogenate in Puck's saline for a final concentration of 100 μM. Homogenate samples were pre-incubated with test compounds at 37° C., rotating, overnight. [^14C]4-Amino-N-[(1S)-1-cyano-2-(4′-cyanobiphenyl-4-yl)ethyl]tetrahydro-2H-pyran-4-carboxamide was then added to all samples to a final concentration of 100 μM, and samples were incubated at 37° C., rotating, for a further 2 h. Protein was precipitated from each sample by the addition of 10 mL acetone, pre-chilled to −20° C. Samples were left overnight at −20° C. to allow complete precipitation. Precipitate was pelleted by centrifugation at 4,500×g at 4° C. for 20 min, an aliquot of supernatant was removed for analysis, and the remainder of the supernatant discarded. Precipitate was washed by resuspension in 10 mL 80% methanol in distilled water, and re-pelleted by centrifugation at 4,500×g at 4° C. for 20 min. […] After final wash, precipitate was air-dried, and dissolved overnight in 1 mL NCSII Tissue Solubiliser. 1 mL aliquots of supernatants were added to 5 mL Ultima Gold scintillation fluid (Perkin Elmer, Mass., U.S.A.), and 1 mL solubilised pellets were added to 5 mL Hionic-Fluor scintillation fluid (Perkin Elmer, Mass., U.S.A.). Radioactivity of samples was determined on a Beckman LS6500 multipurpose scintillation counter (Beckman Coulter, Ind., U.S.A.). […] Duplicate samples were tested for each compound on each experimental occasion, and at least two experiments were run for each test compound. […] 1-way ANOVA and to Bonferroni's multiple comparison tests were performed to calculate significance of differences from vehicle control.

[2] = described in literature (Schmidt et al. 1984); cited from earlier work

Aortic Tissue Binding [1] | SMILES | retention in the aorta in QWBA studies [2]
Strong binder | Cn1c(=O)oc2ccc(-c3ccc(C[C@@H](C#N)NC(=O)C4(N)CCOCC4)cc3)cc21 [WO2010/128324 (Example 17)] | –
Strong binder (reference) | N#Cc1ccc(-c2ccc(C[C@@H](C#N)NC(=O)C3(N)CCOCC3)cc2)cc1 [WO2010/128324 (Ex. 3), 4-amino-N-[(1S)-1-cyano-2-(4′-cyanobiphenyl-4-yl)ethyl]tetrahydro-2H-pyran-4-carboxamide] | –
Medium binder | Cn1c(=O)oc2ccc(-c3ccc(C[C@@H](C#N)NC(=O)[C@@H]4CCCCN4)cc3)cc21 [WO2009/074829 (Example 96)] | –

The remaining lines, values behind:

SMILES | Aortic Tissue Binding [1] | retention in the aorta in QWBA studies [2]
N#Cc1ccc(-c2ccc(C[C@@H](C#N)NC(=O)[C@@H]3CCCCN3)cc2)cc1 [WO2009/074829 (Example 24)] | Binder | –
Cn1c(=O)oc2ccc(-c3ccc(C[C@@H](C#N)NC(=O)[C@@H]4CNCCCO4)cc3)cc21 [Example 2, (2S)—N-{(1S)-1-Cyano-2-[4-(3-methyl-2-oxo-2,3-dihydro-1,3-benzoxazol-5-yl)phenyl]ethyl}-1,4-oxazepane-2-carboxamide] | No binder | –
CC(c1ccc(Cl)c(Cl)c1)N1N=C(N)CC1=O (stereo not drawn) [muzolimine] | – | retained selectively in the aorta
